One test addresses LPA2 receptor (Homo sapiens, UniProt Q9HBW0). Briefly: LPA2 receptor agonist activity (EC50, Emax). Type of test: cell-based. The note with it: for LPA2 (Emax): value in parentheses.
Test [1] has as its system CTX-induced Cl- secretion. In kind it is in vivo, C57BL/6 mice. The note with it: 6 hours.
In a further test the test system is CFTR. Description: Iodide efflux measurements in Calu-3 cells. In kind it is cell-based, human. The note with it: for CFTR activity, peak iodide efflux in response to adenosine: adenosine as CFTR agonist, FIG. 2C.
Test [2] concerns CTX-induced intestinal fluid secretion. Type of test: in vivo, CD1 mice.
Test [3] relates to CFTR Cl- channel. Description: Short-circuit current (Isc) in isolated mouse intestine. The note with it: isolated mouse intestine pretreated with LPA (20:4); dose-dependent; FIG. 2G, 2H. As for the experimental part:
(§1) Calu-3 and HT29-CL19A polarized cell monolayers were grown to confluency on Costar Transwell permeable supports (filter area is 0.33 cm^2). Filters were mounted in an Ussing chamber, and short-circuit currents (Isc) mediated through CFTR Cl^− channel were carried out as described previously (31). Epithelia were bathed in Ringer's solution (mM) (serosal/basolateral: 140 NaCl^−, 5 KCl, 0.36 K2HPO4, 0.44 KH2PO4, 1.3 CaCl2, 0.5 MgCk2, 4.2 NaHCO3, 10 Hepes, 10 glucose, pH 7.2, [Cl^−]=149), and low Cl-Ringer's solution (mM) (luminal/apical: 133.3 Na-gluconate, 5 K-gluconate, 2.5 NaCl, 0.36 K2HPO4, 0.44 KH2PO4, 5.7 CaCl2, 0.5 MgCl2, 4.2 NaHCO3, 10 Hepes, 10 mannitol, pH 7.2, [Cl^−]=14.8) at 37° C., gassed with 95% O2 and 5%) […] CO2. LPA (20:4) was added into both the luminal (apical) side and serosal (basolateral) side of the cell monolayers for 30 min before adenosine (ADO) was added into the luminal/apical side. […]

Test [4] relates to CFTR Cl- channel. Description: Short-circuit current (Isc) in polarized Calu-3 monolayers. Type of test: cell-based, human. The note with it: Calu-3 cells; LPA pretreatment 30 min; FIG. 2F. As for the experimental part:
as §1

The subject of test [5] is CFTR Cl- channel. Briefly: Short-circuit current (Isc) in polarized HT29-CL19A monolayers. Type of test: cell-based, human. The note with it: HT29 cells; LPA (20:4) pretreatment 30 min; FIG. 2E. As for the experimental part: as §1

This is an account of results in patent publication US20070078111A1, “LPA2 receptor agonist inhibitors of CFTR” (priority 2005, published 2007).

As a reminder, the EC50 is the concentration needed to bring the measured effect to its halfway point. Read a high EC50 as a need for much substance.

Sequence of LPA2 receptor (Q9HBW0 whole entry): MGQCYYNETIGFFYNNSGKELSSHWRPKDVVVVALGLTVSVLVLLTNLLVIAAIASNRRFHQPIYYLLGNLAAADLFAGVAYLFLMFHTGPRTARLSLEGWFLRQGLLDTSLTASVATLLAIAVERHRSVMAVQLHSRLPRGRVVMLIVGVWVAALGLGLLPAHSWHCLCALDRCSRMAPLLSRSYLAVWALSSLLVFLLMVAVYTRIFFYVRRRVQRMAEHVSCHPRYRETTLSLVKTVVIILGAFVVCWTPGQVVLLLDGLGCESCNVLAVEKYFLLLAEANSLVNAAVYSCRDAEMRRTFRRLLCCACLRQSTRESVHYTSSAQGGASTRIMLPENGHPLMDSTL

Regarding `CCCCCCCC=CCCCCCCCC[C@@H]1OC[C@H](COP(=O)([O-])O)O1.[K+]` [(2R,4R) Mono potassium phosphoric acid O-(2-heptadec-9-enyl-(1,3)-dioxolan-4-ylmethyl) ester], on LPA2 receptor (Table 2), the response was half-maximal at 1.71 µM (EC50) and the “LPA2 (Emax)” value stood at 42.

As for `CCCCCCCC=CCCCCCCCC[C@@H]1OC[C@H](COP([O-])(O)=S)O1.[K+]` [(2R,4R) Mono potassium thiophosphoric acid O-(2-heptadec-9-enyl-(1,3)-dioxolan-4-ylmethyl) ester], at LPA2 receptor (Table 2), the half-maximal effective concentration (EC50) stood at 1.09 µM and the “LPA2 (Emax)” value was 85.

With `CCCCCCCC=CCCCCCCCC[C@@H]1OC[C@@H](COP([O-])(O)=S)O1.[K+]` [(2R,4S) Mono potassium thiophosphoric acid O-(2-heptadec-9-enyl-(1,3)-dioxolan-4-ylmethyl) ester], on LPA2 receptor (Table 2), the concentration giving a half-maximal response (EC50) stood at 1.54 µM and the “LPA2 (Emax)” value came out at 72.

Take `CCCCCCCC=CCCCCCCCC[C@H]1OC[C@H](COP([O-])(O)=S)O1.[K+]` [(2S,4R) Mono potassium thiophosphoric acid O-(2-heptadec-9-enyl-(1,3)-dioxolan-4-ylmethyl) ester]: at LPA2 receptor (Table 2), the EC50 turned out to be 1.3 µM and the “LPA2 (Emax)” value is listed as 77.

On to `CCCCCCCC=CCCCCCCCC[C@H]1OC[C@@H](COP([O-])(O)=S)O1.[K+]` [(2S,4S) Mono potassium thiophosphoric acid O-(2-heptadec-9-enyl-(1,3)-dioxolan-4-ylmethyl) ester], for which, on LPA2 receptor (Table 2), it took 1.32 µM to reach a half-maximal effect (EC50) and the “LPA2 (Emax)” value amounted to 87.

With `CCCCCCCC(=O)OC[C@H](COP(O)(O)=S)OC(=O)CCCCCCC` [(R)-Octanoic acid 1-octanoyloxymethyl-2-thiophosphonooxy-ethyl ester], the “LPA2 (Emax)” value on LPA2 receptor (Table 1) came to 58.

Regarding `CCCCCCCCOC[C@H](COP(O)(O)=S)OCCCCCCCC` [(R)-Thiophosphoric acid O-(2,3-bis-octyloxy-propyl) ester], on LPA2 receptor (Table 1), the 50% effective concentration (EC50) was 5.72 µM and the “LPA2 (Emax)” value is 27.

For `CCCCCCCC(=O)OC[C@@H](COP(O)(O)=S)OC(=O)CCCCCCC` [(S)-Octanoic acid 1-octanoyloxymethyl-2-thiophosphonooxy-ethyl ester], the “LPA2 (Emax)” value on LPA2 receptor (Table 1) was found to be 17.

With `CCCCCCCC/C=C\CCCCCCCCOP(O)(O)=S` [FAP 18:1d9, fatty alcohol thiophosphate 18:1d9], in test [1], the intestinal fluid accumulation entry was “significantly reduced” and the “ratio of intestinal weight before to after luminal fluid removal” value was “statistically significant reduction”.

Regarding `CCCCCCCC/C=C\CCCCCCCC(=O)OC[C@@H](O)COP(=O)(O)O` [LPA 18:1], the “rank order of inhibition of peak iodide efflux in response to adenosine” value with CFTR (Calu-3 cells, […], FIG. 2D) was “LPA 20:4>LPA 18:2>LPA 18:1”.

Regarding `CC=CCC=CCC=CCCCCCCCCC1OCC(COP(=O)(O)O)O1.[K]` (stereo not shown) [Mono potassium phosphoric acid O-(2-heptadec-9,12,15-trienyl-(1,3)-dioxolan-4-ylmethyl) ester], at LPA2 receptor (Table 2), the EC50 was found to be 1.71 µM and the “LPA2 (Emax)” value is listed as 51.

In the case of `CCCCCCCC=CCCCCCCCCC1OCC(COP(O)(O)=S)O1.[K]` (stereo not shown) [Mono potassium thiophosphoric acid O-(2-heptadec-9-enyl-(1,3)-dioxolan-4-ylmethyl) ester], on LPA2 receptor (Table 2), the response was half-maximal at 1.17 µM (EC50) and the “LPA2 (Emax)” value is on record as 87.

Take `C=CCCCCCCCCOP(=O)(O)O` [Phosphoric acid monodec-9-enyl ester]: on LPA2 receptor (Table 1), the EC50 came out at 3.8 µM and the “LPA2 (Emax)” value amounted to 100.

As for `CCCCCCCCCCOP(=O)(O)O` [Phosphoric acid monodecyl], at LPA2 receptor (Table 1), a half-maximal response (EC50) required 1.8 µM and the “LPA2 (Emax)” value is 82.

In the case of `CC/C=C\CCCCCCCCOP(=O)(O)O` [Phosphoric acid monododec-9-enyl ester], at LPA2 receptor (Table 1), the midpoint of the response, the EC50, lay at 0.717 µM and the “LPA2 (Emax)” value was found to be 78.

As for `CCCCCCCCCCCCOP(=O)(O)O` [Phosphoric acid monododecyl ester], at LPA2 receptor (Table 1), the EC50 came to 3.1 µM and the “LPA2 (Emax)” value turned out to be 50.

As to `CCCC/C=C\CCCCCCCCOP(=O)(O)O` [Phosphoric acid monotetradec-9-enyl ester], on LPA2 receptor (Table 1), the concentration giving a half-maximal response (EC50) came out at 0.397 µM and the “LPA2 (Emax)” value was determined as 58.

Turning to `CC/C=C\CCCCCCCCCCOP(=O)(O)O` [Phosphoric acid monotetradec-11-enyl ester], on LPA2 receptor (Table 1), the EC50 turned out to be 4.1 µM and the “LPA2 (Emax)” value is 75.

Turning to `CCCCCCCCCCOP(O)(O)=S` [Thiophosphoric acid O- decyl ester], at LPA2 receptor (Table 1), the EC50 was found to be 4.57 µM and the “LPA2 (Emax)” value stood at 100.

On to `CCCCCCCCCCCCOP(O)(O)=S` [Thiophosphoric acid O- dodecyl ester], for which the “binding to the LPA2 receptor and thereby inhibiting CFTR activation” value at LPA2 receptor is given as “particularly effective”. Moreover, on LPA2 receptor (Table 1), the half-maximal effective concentration (EC50) is 1 µM and the “LPA2 (Emax)” value worked out at 100.

On to `CCCCCCCCCCCCCCOP(O)(O)=S` [Thiophosphoric acid O- tetradecyl ester], for which, on LPA2 receptor, the “binding to the LPA2 receptor and thereby inhibiting CFTR activation” value was “particularly effective”. Besides, on LPA2 receptor (Table 1), the EC50 turned out to be 2.5 µM and the “LPA2 (Emax)” value was found to be 100.

Consider `CCCC/C=C\CCCCCCCCOP(O)(O)=S` [Thiophosphoric acid O-tetradec-9-enyl ester], for which, on LPA2 receptor, the “binding to the LPA2 receptor and thereby inhibiting CFTR activation” value is “particularly effective”. On LPA2 receptor (Table 1), a half-maximal effect (EC50) was put at 0.48 µM and the “LPA2 (Emax)” value is recorded as 150.

For `CC/C=C\CCCCCCCCOP(O)(O)=S` [drawing 10, Thiophosphoric acid O-dodec-9-enyl ester], the “binding to the LPA2 receptor and thereby inhibiting CFTR activation” value on LPA2 receptor is “particularly effective”. Further, on LPA2 receptor (Table 1), the EC50 was determined as 0.677 µM and the “LPA2 (Emax)” value is recorded as 100.

`CCCCCCCC/C=C\CCCCCCCCOP(O)(O)=S` [drawing 12, Thiophosphoric acid O-octadec-9-enyl ester]: the “binding to the LPA2 receptor and thereby inhibiting CFTR activation” value at LPA2 receptor was “particularly effective”. For the same compound, on LPA2 receptor (Table 1), a half-maximal response (EC50) required 0.244 µM and the “LPA2 (Emax)” value is listed as 175.

In the case of lysophosphatidic acid [LPA], the “CTX-elicited CFTR-dependent intestinal fluid secretion (ileal loop weight)” value in test [2] (6 h) is “significantly reducing fluid accumulation to the level of PBS control loops”. Besides, the “fluid accumulation in toxin-treated intestinal loops” value in test [2] (mouse, in vivo) was “efficiently reduced the fluid accumulation”. Also, the “Isc in response to cpt-cAMP stimulation” value in the test with CFTR Cl- channel [3] was “inhibited”. Further, in the test on CFTR (Calu-3 cells, LPA alone, no cpt-cAMP), the “effect of LPA alone on CFTR channel function (iodide efflux)” value is recorded as “had no effect”. In addition, the “CFTR activity, peak iodide efflux in response to adenosine” value with CFTR (Calu-3 cells) is recorded as “dose-dependent inhibition”. The “response of Calu-3 cells to cpt-cAMP stimulation (iodide efflux)” value in the test on CFTR (LPA pretreatment, FIG. 2A: LPA 18:1 (20 μM), cpt-cAMP 200 μM) is “reduced the response”. Further, the “CFTR-dependent Cl- currents (Isc) in response to adenosine” value in the test with CFTR Cl- channel [4] and in the test on CFTR Cl- channel [5] was “significantly inhibited” throughout. Moreover, in test [1], the “ratio of intestinal weight before to after luminal fluid removal” value was “statistically significant reduction”.

Turning to pertussis toxin [PTX], the “reversal of LPA-dependent inhibition of CFTR function (iodide efflux)” value with CFTR (Calu-3 cells pretreated with PTX 100 or 200 ng/ml for 24 h) was “reversed LPA-dependent inhibition of CFTR function in a dose-dependent fashion”.

For phosphatidic acid [PA], the “CFTR activity, peak iodide efflux in response to adenosine” value with CFTR (Calu-3 cells) is “did not show any significant effect”.
